Reference: US20240150340A1, “CDK Inhibitors And Their Use As Pharmaceuticals” (Prelude Therapeutics Incorporated, priority 2022, published 2024)

Assays:
OVCAR3 p-RB = assay: pRB ICW Assay in OVCAR3 Cells; format: cell-based; conditions: Homo sapiens, OVCAR-3, incubated with compound for 2 hours
Description: pRB ICW Assay in OVCAR3 Cells
OVCAR3 cells were maintained in RPMI (Corning, Catalog #: 10-040-CV) supplemented with 10% v/v FBS (Gibco, Catalog #: 26140-079), 1% v/v Penicillin Streptomycin (Gibco, Catalog #15140-122.) OVCAR3 cells grown at log phase were trypsinized, counted, and resuspended in fresh medium to reach a final density of 6.7e4 cells/mL and 75 μL of culture were dispensed into a 384-well plate (Falcon, cat #353962) using a Multidrop Combi dispenser (Thermo Scientific). The next day, compounds were dispensed as a 9-point, ½ log serial dilution using a Tecan digital dispenser (D300e), and cells were incubated with compound for 2 hours in a humidified incubator at 37° C. A reference compound at a final concentration of 10 μM was used as a control for maximum inhibition. Each compound was tested in duplicate for each experiment. At the end of the incubation, […] (Electron Microscopy, cat #15710) was slowly added to each well and the plate was incubated at room temperature (RT) for 30 minutes to fix cells. Cells were then permeabilized by incubating with 50 μL/well of wash buffer (1×PBS with 0.1% Triton X-100) 5×5 minutes, followed by 1 hour blocking with 30 μL/well of Odyssey blocking buffer (Li-COR, cat #927-40000), at RT. Anti-phosphor RB antibody (Cell signaling 8516S) was diluted 1:1000 in Odyssey blocking buffer and 20 μL was added to all wells and incubated overnight in 4° C. with gently rocking. The next day, cells were washed 5×5 min with 50 μL/well of wash buffer, followed with 1 hour incubation with secondary antibody and DRAQ5 diluted in Odyssey blocking buffer (1:500 dilution for secondary antibody and 1:2000 dilution for DRAQ5), 5×5 min washes, and one last wash with water. Plates were dried in 37° C. oven for 5 minutes and scanned using Li-COR Odyssey CLx imaging system to acquire intensities at 700 and 800 nm channels.

CDK2/Cyclin E2 = biological target: T1, CDK2/Cyclin E2 (Homo sapiens, UniProt P24941); assay: CDK2/CyclinE2 Enzymatic Activity Assay (TR-FRET); format: biochemical; conditions: ATP 1 mM final, read-out: CDK2_E1 IC50
T1 construct: Recombinant protein complex CDK2/Cyclin E2, expressed from insect cell, was purchased from ProQinase
Description: CDK2/CyclinE2 Enzymatic Activity Assay
The inhibitory activity of compounds was evaluated in vitro using TR-FRET assay with white 384-well low volume microplate (Greiner Bio-One). CDK2/Cyclin E2 catalyzed phosphorylation of peptide in the presence and absence of compounds was measured and used in IC50 determination. Recombinant protein complex CDK2/Cyclin E2, expressed from insect cell, was purchased from ProQinase. Testing compounds were dissolved in DMSO at 1 mM and tested in 9-dose IC50 mode. The reaction mixture was prepared by mixing CDK2/CyclinE2 (1 nM final), ULight-4E-BP1 (50 nM final, Perkinelmer, TRF0128-D), and ATP (1 mM final) in assay buffer (20 mM of HEPES pH 7.4, 1 mM of EGTA, 0.05% BSA, 0.005% Tween 20, and 1 mM TCEP). The compound of interest in DMSO was added to each well in 3-fold serial dilution by dispenser (TECAN D300E) to make a 9.9 μL of reaction mixture. After 20 minutes preincubation at room temperature, 0.1 μL MgCl2 (10 mM final) was added to initiate the reaction. Following a 45 minute incubation at 37° C., the reaction was stopped by addition of 2 μL of quenching buffer consisting of Lance detection buffer (Perkinelmer CR97-100C), LANCE Ultra Europium-anti-P-4E-BP1 (Perkinelmer, TRF0216-D), EDTA, and incubated at room temperature for additional 60 minutes in the dark. The reaction signal was measured by Envision multimode plate reader (PerkinElmer, 2102-0010). IC50 values were determined by fitting the data to the standard 4 parameters with Hill Slope using GraphPad Prism software.

IC50 (OVCAR3 p-RB) [µM]	IC50 (CDK2/Cyclin E2) [µM]	SMILES
0.1 to 0.5	≤ 0.1	CC(C)(O)c1cnc(-c2nc(NC3CCN(S(C)(=O)=O)CC3)ncc2C(F)(F)F)s1 [Example 95, 2-(2-(2-((1-(methylsulfonyl)piperidin-4-yl)amino)-5-(trifluoromethyl)pyrimidin-4-yl)thiazol-5-yl)propan-2-ol]
≤ 0.1	≤ 0.1	CC(C)(O)c1cnc(-c2nc(N[C@H]3CCN(S(C)(=O)=O)C[C@H]3F)ncc2C(F)(F)F)s1 [Example 96, 2-(2-(2-(((3R,4S)-3-fluoro-1-(methylsulfonyl)piperidin-4-yl)amino)-5-(trifluoromethyl)pyrimidin-4-yl)thiazol-5-yl)propan-2-ol]
≤ 0.1	≤ 0.1	CC(C)(O)c1cnc(-c2nc(N[C@@H]3CCN(S(C)(=O)=O)C[C@H]3F)ncc2C(F)(F)F)s1 [Example 97, 2-(2-(2-(((3R,4R)-3-fluoro-1-(methylsulfonyl)piperidin-4-yl)amino)-5-(trifluoromethyl)pyrimidin-4-yl)thiazol-5-yl)propan-2-ol]
≤ 0.1	≤ 0.1	Cn1cnc(S(=O)(=O)N2CCC(Nc3ncc(C(F)(F)F)c(-c4ncc(C(C)(C)O)s4)n3)CC2)c1 [Example 98, 2-(2-(2-((1-((1-methyl-1H-imidazol-4-yl)sulfonyl)piperidin-4-yl)amino)-5-(trifluoromethyl)pyrimidin-4-yl)thiazol-5-yl)propan-2-ol]
0.1 to 0.5	≤ 0.1	Cn1cc(S(=O)(=O)N2CCC(Nc3ncc(C(F)(F)F)c(-c4ncc(C(C)(C)O)s4)n3)CC2)cn1 [Example 99, 2-(2-(2-((1-((1-methyl-1H-pyrazol-4-yl)sulfonyl)piperidin-4-yl)amino)-5-(trifluoromethyl)pyrimidin-4-yl)thiazol-5-yl)propan-2-ol]
≤ 0.1	≤ 0.1	Cn1cc(S(=O)(=O)N2CC[C@@H](Nc3ncc(C(F)(F)F)c(-c4ncc(C(C)(C)O)s4)n3)[C@H](F)C2)cn1 [Example 101, 2-(2-(2-(((3R,4R)-3-fluoro-1-((1-methyl-1H-pyrazol-4-yl)sulfonyl)piperidin-4-yl)amino)-5-(trifluoromethyl)pyrimidin-4-yl)thiazol-5-yl)propan-2-ol]
≤ 0.1	≤ 0.1	CC(O)(c1cnc(-c2nc(NC3CCN(S(C)(=O)=O)CC3)ncc2C(F)(F)F)s1)C(F)F (stereo not shown) [Example 102, 1,1-difluoro-2-(2-(2-((1-(methylsulfonyl)piperidin-4-yl)amino)-5-(trifluoromethyl)pyrimidin-4-yl)thiazol-5-yl)propan-2-ol]
≤ 0.1	≤ 0.1	C[C@@H]1CN(S(=O)(=O)c2cnn(C)c2)CC[C@@H]1Nc1ncc(C(F)(F)F)c(-c2ncc(C(C)(O)C(F)(F)F)s2)n1 (stereo partly drawn) [Example 105, 1,1,1-trifluoro-2-(2-(2-(((3R,4S)-3-methyl-1-((1-methyl-1H-pyrazol-4-yl)sulfonyl)piperidin-4-yl)amino)-5-(trifluoromethyl)pyrimidin-4-yl)thiazol-5-yl)propan-2-ol]
0.1 to 0.5	≤ 0.1	CS(=O)(=O)N1CCC(Nc2ncc(C(F)(F)F)c(-c3ncc(C4(O)CCC4)s3)n2)CC1 [Example 106, 1-(2-(2-((1-(methylsulfonyl)piperidin-4-yl)amino)-5-(trifluoromethyl)pyrimidin-4-yl)thiazol-5-yl)cyclobutan-1-ol]
0.1 to 0.5	≤ 0.1	Cn1cc(S(=O)(=O)N2CC[C@@H](Nc3ncc(C(F)(F)F)c(-c4ncc(CC(C)(C)O)s4)n3)[C@H](F)C2)cn1 [Example 110, 1-(2-(2-(((3R,4R)-3-fluoro-1-((1-methyl-1H-pyrazol-4-yl)sulfonyl)piperidin-4-yl)amino)-5-(trifluoromethyl)pyrimidin-4-yl)thiazol-5-yl)-2-methylpropan-2-ol]
≤ 0.1	≤ 0.1	C[C@@H]1CN(S(=O)(=O)c2cnn(C)c2)CC[C@@H]1Nc1ncc(C(F)(F)F)c(-c2ncc(CC(C)(C)O)s2)n1 [Example 111, 2-methyl-1-(2-(2-(((3R,4S)-3-methyl-1-((1-methyl-1H-pyrazol-4-yl)sulfonyl)piperidin-4-yl)amino)-5-(trifluoromethyl)pyrimidin-4-yl)thiazol-5-yl)propan-2-ol]
≤ 0.1	≤ 0.1	CC(O)c1cnc(-c2nc(NC3CCN(S(C)(=O)=O)CC3)ncc2C(F)(F)F)s1 (stereo not shown) [Example 112, 1-(2-(2-((1-(methylsulfonyl)piperidin-4-yl)amino)-5-(trifluoromethyl)pyrimidin-4-yl)thiazol-5-yl)ethan-1-ol]
≤ 0.1	≤ 0.1	CS(=O)(=O)N1CCC(Nc2ncc(C(F)(F)F)c(-c3ncc(C(O)C(F)(F)F)s3)n2)CC1 (stereo not shown) [Example 113, 2,2,2-trifluoro-1-(2-(2-((1-(methylsulfonyl)piperidin-4-yl)amino)-5-(trifluoromethyl)pyrimidin-4-yl)thiazol-5-yl)ethan-1-ol]
≤ 0.1	≤ 0.1	CC(O)c1cnc(-c2nc(N[C@@H]3CCN(S(=O)(=O)c4cnn(C)c4)C[C@H]3F)ncc2C(F)(F)F)s1 (stereo partly drawn) [Example 115, 1-(2-(2-(((3R,4R)-3-fluoro-1-((1-methyl-1H-pyrazol-4-yl)sulfonyl)piperidin-4-yl)amino)-5-(trifluoromethyl)pyrimidin-4-yl)thiazol-5-yl)ethan-1-ol]
≤ 0.1	≤ 0.1	CC(C)(O)c1sc(-c2nc(N[C@@H]3CCN(S(C)(=O)=O)C[C@H]3F)ncc2C(F)(F)F)cc1C#N [Example 116, 5-(2-(((3R,4R)-3-fluoro-1-(methylsulfonyl)piperidin-4-yl)amino)-5-(trifluoromethyl)pyrimidin-4-yl)-2-(2-hydroxypropan-2-yl)thiophene-3-carbonitrile]
≤ 0.1	≤ 0.1	Cn1cc(S(=O)(=O)N2CCC(Nc3ncc(C(F)(F)F)c(-c4cc(C#N)c(C(C)(C)O)s4)n3)CC2)cn1 [Example 117, 2-(2-hydroxypropan-2-yl)-5-(2-((1-((1-methyl-1H-pyrazol-4-yl)sulfonyl)piperidin-4-yl)amino)-5-(trifluoromethyl)pyrimidin-4-yl)thiophene-3-carbonitrile]
0.1 to 0.5	≤ 0.1	C[C@@H]1CN(S(=O)(=O)c2cnn(C)c2)CC[C@@H]1Nc1ncc(C(F)(F)F)c(-c2cc(C#N)c(C(C)(C)O)s2)n1 [Example 118, 2-(2-hydroxypropan-2-yl)-5-(2-(((3R,4S)-3-methyl-1-((1-methyl-1H-pyrazol-4-yl)sulfonyl)piperidin-4-yl)amino)-5-(trifluoromethyl)pyrimidin-4-yl)thiophene-3-carbonitrile]
≤ 0.1	≤ 0.1	Cn1cc(S(=O)(=O)N2CC[C@@H](Nc3ncc(C(F)(F)F)c(-c4cc(C#N)c(C(C)(C)O)s4)n3)[C@H](F)C2)cn1 [Example 119, 5-(2-(((3R,4R)-3-fluoro-1-((1-methyl-1H-pyrazol-4-yl)sulfonyl)piperidin-4-yl)amino)-5-(trifluoromethyl)pyrimidin-4-yl)-2-(2-hydroxypropan-2-yl)thiophene-3-carbonitrile]
≤ 0.1		Cc1cnc(N[C@H]2CCN(S(C)(=O)=O)C[C@H]2F)nc1-c1ncc(CC(C)(C)O)s1 [Example 155, 1-(2-(2-(((3R,4S)-3-fluoro-1-(methylsulfonyl)piperidin-4-yl)amino)-5-methylpyrimidin-4-yl)thiazol-5-yl)-2-methylpropan-2-ol]
